According to patent US6514911B1, “Substituted oxadiazines useful as pesticides” (Uniroyal Chemical Company, Inc., priority 2002, dated 2003):

Key:
Type in all cases: in vivo
[1] = tested on: green foxtail (Setaria virdis (L.) Beauv.) (GF); experiment: Preemergence herbicide test, soil drench, green foxtail; details: two weeks after treatment
Procedure: To illustrate the effectiveness of the previously described substituted oxadiazines of this invention as preemergence herbicides, 300 mg of the chemical was dissolved in a composition comprising 10 mL acetone to which 30 mg of tile emulsifying agent, ethoxylated sorbitan monolaurate, was added. The solution was diluted to 100 mL with distilled water. Ten milliliters of this 3000 ppm solution was diluted to 250 ppm with distilled water. The chemical was applied at the rate of 10 pounds/acre (11.2 kg/ha) by drenchings 46 mL of the 250 ppm solution on the surface of soil in 41⁄2 inch (11.25 cm) plastic pots wherein seeds of the following weeds had been planted: green foxtail (Setaria […].) Beauv.) (GF). The percent control of the weeds compared to untreated checks was determined two weeks after treatment. TABLE 1 summarizes the results achieved with compounds formulated as indicated above, and the data clearly indicate the good to excellent herbicidal efficacy of compositions of this invention.

[2] = tested on: switchgrass (Panicum virgahim L.) (SG); experiment: Preemergence herbicide test, soil drench, switchgrass; details: two weeks after treatment; for pest or weed control at 11208.5 g/ha / Percent Weed Control SG: 10 lbs/A (11.2 kg/ha) soil drench, vs untreated checks
Procedure: (§1) To illustrate the effectiveness of the previously described substituted oxadiazines of this invention as preemergence herbicides, 300 mg of the chemical was dissolved in a composition comprising 10 mL acetone to which 30 mg of tile emulsifying agent, ethoxylated sorbitan monolaurate, was added. The solution was diluted to 100 mL with distilled water. Ten milliliters of this 3000 ppm solution was diluted to 250 ppm with distilled water. The chemical was applied at the rate of 10 pounds/acre (11.2 kg/ha) by drenchings 46 mL of the 250 ppm solution on the surface of soil in 4½ inch (11.25 cm) plastic pots wherein seeds of the following weeds had been planted:
switchgrass (Panicum virgahim L.) (SG),
(§2) The percent control of the weeds compared to untreated checks was determined two weeks after treatment. TABLE 1 summarizes the results achieved with compounds formulated as indicated above, and the data clearly indicate the good to excellent herbicidal efficacy of compositions of this invention.

[3] = tested on: tall morningglory (Ipomoea purpurea (L.) Roth) (TM); experiment: Preemergence herbicide test, soil drench, tall morningglory; details: 10 lbs/A (11.2 kg/ha) soil drench, two weeks after treatment, vs untreated checks; for pest or weed control at 11208.5 g/ha: Ipomoea, 336 h, read-out: Percent Weed Control TM
Procedure: (§3) To illustrate the effectiveness of the previously described substituted oxadiazines of this invention as preemergence herbicides, 300 mg of the chemical was dissolved in a composition comprising 10 mL acetone to which 30 mg of tile emulsifying agent, ethoxylated sorbitan monolaurate, was added. The solution was diluted to 100 mL with distilled water. Ten milliliters of this 3000 ppm solution was diluted to 250 ppm with distilled water. The chemical was applied at the rate of 10 pounds/acre (11.2 kg/ha) by drenchings 46 mL of the 250 ppm solution on the surface of soil in 4½ inch (11.25 cm) plastic pots wherein seeds of the following weeds had been planted: tall morningglory (Ipomoea purpurea (L.) Roth) (TM), The percent control of the weeds compared to untreated checks was determined two weeks after treatment. TABLE 1 summarizes the results achieved with compounds formulated as indicated above, and the data clearly indicate the good to excellent herbicidal efficacy of compositions of this invention.

[4] = tested on: barnyardgrass (Echinochloa crus-galli (L.) Beauv.) (BG); experiment: Preemergence herbicide test, soil drench, barnyardgrass; details: two weeks after treatment
Procedure: as §3, with “barnyardgrass (Echinochloa crus-galli” for “tall morningglory (Ipomoea purpurea”, “Beauv.) (BG), and” for “Roth) (TM),”

[5] = tested on: velvetleaf (Abutilon theophrasti Medik.) (VL); experiment: Preemergence herbicide test, soil drench, velvetleaf; details: 10 lbs/A (11.2 kg/ha) soil drench, two weeks after treatment, vs untreated checks; for pest or weed control at 11208.5 g/ha: Abutilon theophrasti, 336 h, read-out: Percent Weed Control VL
Procedure: as §3, with “velvetleaf (Abutilon theophrasti Medik.) (VL),” for “tall morningglory (Ipomoea purpurea (L.) Roth) (TM),”

[6] = tested on: prickly sida (Sida spinosa L.) (PS); experiment: Preemergence herbicide test, soil drench, prickly sida; details: two weeks after treatment
Procedure: as §1, with “The chemical was applied at the rate of 10 pounds/acre (11.2 kg/ha) by drenchings 46 mL of the 250 ppm solution on the surface of soil in 4½ inch (11.25 cm) plastic pots wherein seeds of the following weeds had been planted:” left out
prickly sida (Sida spinosa L.) (PS),
as §2

[7] = Setaria, 336 h, 10 lbs/A (11.2 kg/ha) soil drench, vs untreated checks, read-out: Percent Weed Control GF
[8] = Panicum, 336 h, read-out: Percent Weed Control SG
[9] = Echinochloa crus-galli, 336 h, 10 lbs/A (11.2 kg/ha) soil drench, vs untreated checks, read-out: Percent Weed Control BG
[10] = Sida spinosa, 336 h, 10 lbs/A (11.2 kg/ha) soil drench, vs untreated checks, read-out: Percent Weed Control PS
[11] = 10 lbs/A (11.2 kg/ha) soil drench, vs untreated checks
[12] = 5 lbs/A (footnote for 32 and 33)

Structure (SMILES)	pest or weed control at 11208.5 g/ha [1, 7] [%]	pest or weed control at 11208.5 g/ha [2, 8] [%]	pest or weed control at 11208.5 g/ha [3] [%]	pest or weed control at 11208.5 g/ha [4, 9] [%]	pest or weed control at 11208.5 g/ha [5] [%]	pest or weed control at 11208.5 g/ha [6, 10] [%]	other results
FC(F)(F)C1=NC(C(F)(F)F)(C(F)(F)F)N=C(c2ccccc2)O1 [Compound 1, 2-phenyl-4,4,6-tris(trifluoromethyl)-4H-1,3,5-oxadiazine]	0	0	100	0	100	100	
FC(F)(F)C1=NC(C(F)(F)F)(C(F)(F)F)N=C(c2ccc(Br)cc2)O1 [Compound 2, 2-(4-bromophenyl)-4,4,6-tris(trifluoromethyl)-4H-1,3,5-oxadiazine]	100	100	100	100	100	100	
Fc1ccccc1C1=NC(C(F)(F)F)(C(F)(F)F)N=C(C(F)(F)F)O1 [Compound 3, 2-(2-fluorophenyl)-4,4,6-tris(trifluoromethyl)-4H-1,3,5-oxadiazine]	40	30	0	0	100	0	
FC(F)(F)C1=NC(C(F)(F)F)(C(F)(F)F)N=C(c2cccc(C(F)(F)F)c2)O1 [Compound 7, 2,4,4-tris(trifluoromethyl)-6-{(3-trifluoromethyl)phenyl}-4H-1,3,5-oxadiazine]							Percent Weed Control GF [1, 11]: 100%; Percent Weed Control SG [2]: 100%; Percent Weed Control TM [3]: 100%; Percent Weed Control BG [4, 11]: 100%; Percent Weed Control VL [5]: 100%; Percent Weed Control PS [6, 11]: 100%
FC(F)(F)Oc1ccc(C2=NC(C(F)(F)F)(C(F)(F)F)N=C(C(F)(F)F)O2)cc1 [Compound 8, 2-{4-(trifluoromethoxy)phenyl}-4,4,6-tris(trifluoromethyl)-4H-1,3,5-oxadiazine]	100	100	100	100	100	100	
Nc1ccc(C2=NC(C(F)(F)F)(C(F)(F)F)N=C(C(F)(F)F)O2)cc1 [Compound 9, 2-(4-aminophenyl)-4,4,6-tris(trifluoromethyl)-4H-1,3,5-oxadiazine]	90	90	0	0	90	0	
O=[N+]([O-])c1ccc(C2=NC(C(F)(F)F)(C(F)(F)F)N=C(C(F)(F)F)O2)cc1 [Compound 10, 2-(4-nitrophenyl)-4,4,6-tris(trifluoromethyl)-4H-1,3,5-oxadiazine]	80	80	50	80	80	80	
FC(F)(F)C(F)(F)C1=NC(C(F)(F)F)(C(F)(F)F)N=C(c2ccccc2)O1 [Compound 11, 2-(pentafluoroethyl)-6-phenyl-4,4-bis(trifluoromethyl)-4H-1,3,5-oxadiazine]	50	0	100	0	100	100	
FC(F)(F)c1ccc(C2=NC(C(F)(F)F)(C(F)(F)F)N=C(C(F)(F)C(F)(F)F)O2)cc1 [Compound 15]							Percent Weed Control GF [1, 11]: 100%; Percent Weed Control SG [2]: 100%; Percent Weed Control TM [3]: 100%; Percent Weed Control BG [4, 11]: 100%; Percent Weed Control VL [5]: 100%; Percent Weed Control PS [6, 11]: 100%
Fc1ccc(C2=NC(C(F)(F)F)(C(F)(F)F)N=C(C(F)(F)C(F)(F)F)O2)cc1 [Compound 17, 2-(4-fluorophenyl)-6-(pentafluoroethyl)-4,4-bis(trifluoromethyl)-4H-1,3,5-oxadiazine]	50	50	100	100	100	100	
O=Cc1ccc(C2=NC(C(F)(F)F)(C(F)(F)F)N=C(C(F)(F)C(F)(F)F)O2)cc1 [Compound 31, 4-{6-(pentafluoroethyl)-4,4-bis(trifluoromethyl)-4H-1,3,5-oxadiazin-2-yl}-benzaldehyde]				100			
FC(F)C1=NC(C(F)(F)F)(C(F)(F)F)N=C(c2cccc(C(F)(F)F)c2)O1 [Compound 32, 2-(difluoromethyl)-4,4-bis(trifluoromethyl)-6-(3-trifluoromethylphenyl)-4H-1,3,5-oxadiazine]							pest or weed control at 5604.25 g/ha ([1]; Setaria, pre-emergence, 336 h, 5 lbs/A (footnote for 32 and 33), read-out: Percent Weed Control GF): 100%; pest or weed control at 5604.25 g/ha ([2]; Panicum, pre-emergence, 336 h, 5 lbs/A (footnote for 32 and 33), read-out: Percent Weed Control SG): 0%; pest or weed control at 5604.25 g/ha ([4]; Echinochloa crus-galli, pre-emergence, 336 h, 5 lbs/A (footnote for 32 and 33), read-out: Percent Weed Control BG): 80%; pest or weed control at 5604.25 g/ha ([6]; Sida spinosa, pre-emergence, 336 h, 5 lbs/A (footnote for 32 and 33), read-out: Percent Weed Control PS): 100%
FC(F)C1=NC(C(F)(F)F)(C(F)(F)F)N=C(c2ccc(C(F)(F)F)cc2)O1 [Compound 33, 21-(dfluoromethyl)-4,4-bis(trifluoromethyl)-6-(4-trifluoromethylphenyl)-4H-1,3,5-oxadiazine]							Percent Weed Control GF [1, 12]: 40%; Percent Weed Control BG [4, 12]: 20%; Percent Weed Control PS [6, 12]: 100%
